# Results taken from patent publication US7153977B2, “Ligands and methods for preparing same” (National University of Singapore, priority 2000, dated 2006).
# Read-outs that look alike come from different tables or passages of the source.
# How the values were obtained:
# [1] = biological target: T1, es transporter protein (Mus musculus, UniProt Q9JIM1); settings: Lee et al. (1995), cited from earlier work
# T1 sequence (Q9JIM1 1-460): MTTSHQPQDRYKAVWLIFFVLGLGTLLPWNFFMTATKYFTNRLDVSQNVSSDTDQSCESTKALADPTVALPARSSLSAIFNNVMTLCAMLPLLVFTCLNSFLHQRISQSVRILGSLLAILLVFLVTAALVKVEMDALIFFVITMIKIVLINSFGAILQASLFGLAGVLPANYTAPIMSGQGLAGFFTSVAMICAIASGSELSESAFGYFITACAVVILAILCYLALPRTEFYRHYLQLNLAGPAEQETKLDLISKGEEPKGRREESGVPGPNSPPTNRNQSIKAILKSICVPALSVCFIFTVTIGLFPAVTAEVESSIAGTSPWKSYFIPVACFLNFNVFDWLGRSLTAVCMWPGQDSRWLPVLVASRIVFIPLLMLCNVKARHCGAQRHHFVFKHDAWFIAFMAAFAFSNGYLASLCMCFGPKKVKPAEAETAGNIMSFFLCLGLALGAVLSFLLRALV
# [2] = biological target: T2, es nucleoside transporter (Homo sapiens, UniProt Q99808); settings: known from the art; cited from earlier work
# T2 sequence (Q99808 1-456): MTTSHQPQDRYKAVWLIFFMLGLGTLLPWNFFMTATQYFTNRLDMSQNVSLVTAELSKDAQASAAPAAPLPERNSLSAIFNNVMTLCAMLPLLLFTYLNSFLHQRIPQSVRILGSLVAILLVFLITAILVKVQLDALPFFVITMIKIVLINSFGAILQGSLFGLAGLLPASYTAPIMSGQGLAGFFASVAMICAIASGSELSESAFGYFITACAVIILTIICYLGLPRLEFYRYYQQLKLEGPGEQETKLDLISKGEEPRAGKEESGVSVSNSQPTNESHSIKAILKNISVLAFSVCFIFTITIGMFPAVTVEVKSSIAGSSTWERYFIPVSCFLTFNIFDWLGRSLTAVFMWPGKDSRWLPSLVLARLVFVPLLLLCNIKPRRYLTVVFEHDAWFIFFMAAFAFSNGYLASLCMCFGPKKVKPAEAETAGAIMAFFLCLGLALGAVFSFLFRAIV
# [3] = biological target: 5-HT receptor (3H-5-HT high and low affinity binding sites of murine brain membranes); assay: Inhibition of 3H-5-HT binding to murine brain membranes; settings: 5 min pretreatment, 5 nM 3H-5-HT 30 min
# Procedure: (§1) Purified murine brain membranes suspended in reaction buffer (0.13 M NaCl, 0.02 M NaHCO3, pH 7.0) were pretreated with graded concentrations of LBT3001 (▪), LBT3002 (□), LBT3004 (∘), and LBT3005 (●) for 5 min prior exposure to ^3H-5-HT (5 nM final concentration) for additional 30 min. The reaction was terminated by membrane vacuum filtration method. […] The results were plotted against control binding determined in the absence of inhibitors.
# [4] = tested on: T3, 5-HT receptor (3H-5-HT high and low affinity binding sites of murine brain membranes); assay: as above; settings: for IC50: 5 min pretreatment, 5 nM 3H-5-HT 30 min
# T3 construct: other: 5 min pretreatment, 5 nM 3H-5-HT 30 min
# Procedure: as §1
# [5] = biological target: T4, es nucleoside transporter (human HL-60 promyelocytic leukemia plasma membranes) (Homo sapiens, UniProt Q99808); assay: 3H-NBMPR binding to HL-60 plasma membranes; set-up: Bmax of 3H-NBMPR binding in presence of CrMCC: unit not given here; settings: for IC50: 5 min pretreatment, 5 nM 3H-NBMPR 30 min, read-out: IC50 of inhibition of specific 3H-NBMPR binding
# T4 sequence (Q99808 1-456): T2 sequence (Q99808 1-456)
# [6] = tested on: HL-60 cells; assay: Growth of HL-60 cells; settings: 3 days of exposure; for effect on HL-60 cell growth: concentrations as high as 100 μM
# [7] = tested on: es nucleoside transporter (human HL-60 promyelocytic leukemia plasma membranes); assay: 3H-CrMCC binding to HL-60 plasma membranes
# Procedure: This experiment was conducted to investigate the rate of ^3H-CrMCC binding to the unsealed plasma membranes of HL-60 cells. […] The binding reaction in FIG. 9 was terminated by membrane filtration method and the data were corrected for filter blanks.
# It is important to confirm the binding of ^3H-CrMCC to the unsealed HL-60 plasma membranes is indeed irreversible. Purified unsealed HL-60 plasma membranes were incubated with 30 μM of ^3H-CrMCC for 10 min. After which the mixtures were diluted 20 folds and the diluted mixtures were sat at room temperature for various time intervals to allow dissociation to occur. […] The dissociation reaction shown in FIG. 10 was terminated by membrane filtration method and the data were corrected for filter blanks.
# Purified unsealed HL-60 plasma membranes were incubated with 30 μM of ^3H-CrMCC for 5 min. The reaction mixture was then diluted 20-fold with reaction buffer of various pH values (pH 0.85 to 7.5). The dissociation reaction was terminated by membrane filtration method. The data were corrected for filter blanks.
# [8] = Storage stability of lyophilized CrMCC; assay type: physicochemical; settings: −20° C. in a desiccator
# [9] = Hydrophobicity on C18 reversed-phase column; assay type: physicochemical; settings: compared with cytidine and SMCC
# Procedure: N-Succinimidyl 4-[N-maleimidomethyl]cyclohexane-1-carboxylate (SMCC) and cytidine were dissolved in anhydrous dimethysulfoxide (DMSO) separately prior reaction. The reaction started when these two reagents were mixed at room temperature and shielded from light. The molar concentration ratio of SMCC:cytidine in the mixture was 0.10 M:0.15 M with pH 7.5–8.0 in the reaction system. Within 4 hrs, CrMCC was found in the reaction mixture and can be separated from cytidine and SMCC by a C18 reversed-phase column (Resource RPC, Pharmacia) operated on a HPLC (AKTA Purifier, Pharmacia) using the absorbance wavelength of 300 nm. Cytidine was eluted by 100% water and CrMCC and SMCC were eluted by 15% acetonitrile in water with the flow rate 1.5 ml/min. […] Formation of CrMCC reached its near maximum after 48 hrs of reaction between SMCC and cytidine at 22–24° C. (FIG. 4). The area under the peak was calculated using a computer program UNICORN (version 2.0).
# [10] = biological target: T5, es transport system in murine EL-4 cells (Mus musculus, UniProt Q9JIM1); assay: NEM inhibition of 3H-uridine transport in EL-4 cells (only es)
# T5 sequence (Q9JIM1 1-460): T1 sequence (Q9JIM1 1-460)
# [11] = biological target: T6, ei transport system in rat Morris 7777 cells (Rattus norvegicus, UniProt O54699); assay: NEM inhibition of 3H-uridine transport in Morris 7777 cells (only ei)
# T6 sequence (O54699 1-456): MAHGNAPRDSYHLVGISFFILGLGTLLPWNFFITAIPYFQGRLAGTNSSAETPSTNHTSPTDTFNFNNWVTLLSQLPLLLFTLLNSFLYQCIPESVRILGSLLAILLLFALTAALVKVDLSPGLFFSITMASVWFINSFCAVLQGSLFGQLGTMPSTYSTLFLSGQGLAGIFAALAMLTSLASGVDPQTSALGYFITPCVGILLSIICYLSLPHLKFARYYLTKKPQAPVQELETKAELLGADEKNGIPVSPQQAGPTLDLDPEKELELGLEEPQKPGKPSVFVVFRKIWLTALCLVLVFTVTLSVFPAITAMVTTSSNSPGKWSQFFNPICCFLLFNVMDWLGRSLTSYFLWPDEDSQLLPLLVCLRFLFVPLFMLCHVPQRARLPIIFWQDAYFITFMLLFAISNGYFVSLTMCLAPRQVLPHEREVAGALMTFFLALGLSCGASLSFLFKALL
# [12] = 1 mM physiological nucleoside, 30 μM 3H-CrMCC
compound,measurement,setting,value
COc1cc(C(=O)OCCCN2CCCN(CCCOC(=O)c3cc(OC)c(OC)c(OC)c3)CC2)cc(OC)c1OC [dilazep],protection of sulfhydryl group from NEM modification,[1]; at 30 μM,incapable of protecting
same,rate of binding of reversible antagonists,[2],rapid and mostly completed within first minute of incubation
"O=C(CCCN1C(=O)C=CC1=O)NCCc1c[nH]c2ccc(O)cc12 [LBT3002, 4-(2,5-dioxo-2,5-dihydro-pyrrol-1-yl)-N-[2-(5-hydroxyl-1H-indol-3-yl)-ethyl]-butyramide]",IC50,[3],~200 µM
same,efficacy as irreversible binding compounds,[4],demonstrated efficacy as irreversible binding compounds
same,IC50,[4],~0.03 nM
"O=C(ON1C(=O)CCC1=O)C1CCC(CN2C(=O)C=CC2=O)CC1 (stereo not drawn) [SMCC, N-Succinimidyl 4-[N-maleimidomethyl]cyclohexane-1-carboxylate, reference compound]",IC50,[5]; HL-60 plasma membranes,100 µM
same,IC50,"[6]; read-out: IC50 on cell growth, HL-60 cells",< 0.5 µM
Nc1ccn([C@@H]2O[C@H](CO)[C@@H](O)[C@H]2O)c(=O)n1 [cytidine],effect on HL-60 cell growth,[6],little or no effect
same,level of binding to HL-60 plasma membranes,[7]; 30 μM radioligand,low
same,displacement of 3H-CrMCC from its binding sites,[7]; 1 mM in the dilution medium,failed to displace
same,inhibition of 3H-CrMCC binding,[7]; [12],failed to inhibit
"1-[[4-[(4-amino-1-β-D-ribofuranosyl-2(1H)-pyrimidione)carbonyl]cyclohexyl]methyl]-1H-pyrrole-2,5-dione [CrMCC]",Bmax of 3H-NBMPR binding in presence of CrMCC,[5]; HL-60 membranes pretreated with 10 μM CrMCC 5 min,0.59±0.01
same,Bmax of 3H-NBMPR binding in presence of CrMCC,[5]; HL-60 membranes pretreated with 50 μM CrMCC 5 min,0.30±0.01
same,IC50,[5]; HL-60 plasma membranes,10 µM
same,Ki,"[5]; HL-60 plasma membranes, read-out: Ki (calculated) for 3H-NBMPR binding",1 µM
same,mode of inhibition of 3H-NBMPR binding,[5]; double reciprocal plot,non-competitive inhibition
same,stability of activity on storage,[8],stable for at least three months
same,hydrophobicity,[9],greater than that of cytidine but is less than that of SMCC
same,effect on HL-60 cell growth,[6],little or no effect
same,time needed to achieve maximum binding,[7]; 30 μM 3H-CrMCC,≥ 5 min
same,dissociation from binding sites after 20-fold dilution,"[7]; 30 μM radioligand 10 min, then 20-fold dilution, room temperature, up to at least 60 min",little or no dissociation
same,pH below which ligand-receptor complexes began to break down,[7]; buffers pH 0.85 to 7.5,below 3.5
same,stability of 3H-CrMCC-receptor complexes,"[7]; physiological pH, 20-fold dilution in buffer",very stable
same,Kd,"[7]; read-out: Kd of high affinity component, 3 to 800 μM 3H-CrMCC, 10 min",23.8 ± 2.2 µM
OCCN(CCO)c1nc(N2CCCCC2)c2nc(N(CCO)CCO)nc(N3CCCCC3)c2n1 [dipyridamole],protection of sulfhydryl group from NEM modification,[1]; at 30 μM,incapable of protecting
same,inhibition of 3H-CrMCC binding,"[7]; 20 μM es nucleoside transport inhibitor, 30 μM 3H-CrMCC",failed to inhibit
Nc1ncnc2c1ncn2[C@@H]1O[C@H](CO)[C@@H](O)[C@H]1O [adenosine],inhibition of 3H-CrMCC binding,[7]; [12],failed to inhibit
"O=C1C=CC(=O)N1CCc1c[nH]c2ccc(O)cc12 [LBT3001, 1-[2-(5-hydroxy-1H-indol-3-yl)-ethyl]-pyrrole-2,5-dione]",IC50,[3],~50 µM
same,efficacy as irreversible binding compounds,[4],demonstrated efficacy as irreversible binding compounds
same,IC50,[4],~1 nM
"CCN1C(=O)C=CC1=O [NEM, N-Ethylmaleimide]",inhibition of 3H-CrMCC binding,"[7]; 1 mM NEM, 30 μM 3H-CrMCC",as effective as 0.5 mM of CrMCC
same,IC50,[10],~100 µM
same,IC50,[11],~1500 µM
"O=C(NCCc1c[nH]c2ccc(O)cc12)C1CCC(CN2C(=O)C=CC2=O)CC1 (stereo not drawn) [LBT3005, 4-(2,5-dioxo-2,5-dihydro-pyrrol-1-yl-methyl)-cyclohexane carboxylic acid [2-(5-hydroxy-1H-indol-3-yl)-ethyl]-amide]",IC50,[3],300 µM
same,efficacy as irreversible binding compounds,[4],demonstrated efficacy as irreversible binding compounds
same,IC50,[4],500 nM
O=c1ccn([C@@H]2O[C@H](CO)[C@@H](O)[C@H]2O)c(=O)[nH]1 [uridine],protection of sulfhydryl group from NEM modification,[1]; at 10 mM,incapable of protecting
same,inhibition of 3H-CrMCC binding,[7]; [12],failed to inhibit
"O=C(CCN1C(=O)C=CC1=O)NCCc1c[nH]c2ccc(O)cc12 [LBT3004, 3-(2,5-dioxo-2,5-dihydro-pyrrol-1-yl)-N-[2-(5-hydroxyl-1H-indol-3-yl)-ethyl]-propionamide]",IC50,[3],~50 µM
same,efficacy as irreversible binding compounds,[4],demonstrated efficacy as irreversible binding compounds
same,IC50,[4],~200 nM
OC[C@H]1O[C@@H](n2cnc3c(O)ncnc32)[C@H](O)[C@@H]1O [inosine],inhibition of 3H-CrMCC binding,[7]; [12],failed to inhibit
